The results in this text go back to US20150025132A1, “COMPOSITIONS AND METHODS FOR INHIBITING ENDOSPORES USING GREEN TEA POLYPHENOLS” (priority 2013, published 2015).

The test system of data set [1] is Bacillus megaterium spores. As to the kind of experiment: Viability of heat-treated spores after treatment, colony count on nutrient agar. The data set is classed as cell-based. The note with it: 10%. As for the experimental part:
Bacillus megaterium spores were induced through process of starvation for 2 hours in sterile deionized water and then heated at 90° C. for 20 minutes. The heated samples were treated with 10% of EGCG or EGCG-ester for 1 hour or 24 hours respectively and then plated onto nutrient agar plates with a countable range of 150 to 300 CPU (colony counting unit). The non-starved cells and starved cells without treatment were used as controls.

In data set [2] the test system is B. megaterium. The data set can be described thus: Inhibition of endospore germination (outgrowth), plating on nutrient agar. The data set is classed as cell-based, Bacillus megaterium. The note with it: for Average Inhibition of Spore Germination: Table 2, B. megaterium, 2 hours treatment; for Average Percent Inhibition of B. megaterium: Table 4 (FIG. 3). As for the experimental part:
(§1) Heated samples were treated with 1, 5, 10% of GTP (mixed green tea polyphenols), LTP (lipophilic green tea polyphenols), EGCg (epigallocatechingallate), or EGCg-Stearate for 2 hours, diluted and plated onto nutrient agar plates, and incubated at 37° C. for 24 hours. Non-starved cells and starved cells without treatment were used as controls.
(§2) Germination, specifically outgrowth, of purified endospores in Bacillus cereus, B. megaterium, and B. subtilis was studied by treating the bacteria with four different green tea polyphenols: GTP (mixed green tea polyphenols), LTP (lipophilic green tea polyphenols), EGCg (epigallocatechingallate), and EGCg-Stearate.

The test system of data set [3] is B. subtilis. Described as above. The data set is classed as cell-based, Bacillus subtilis. Particulars: for Average Inhibition of Spore Germination: Table 2, B. subtilis, 2 hours treatment; for Average Percent Inhibition of B. subtilis: Table 5 (FIG. 4). As for the experimental part: as §1, §2
In data set [4] the test system is B. cereus. The data set is described as above. Particulars: for Average Inhibition of Spore Germination: Table 2, B. cereus, 2 hours treatment; for Average Percent Inhibition of B. cereus: Table 3 (FIG. 2). The data set is classed as cell-based, Bacillus cereus. As for the experimental part:
as §1, §2

In the case of `O=C(O[C@@H]1Cc2c(O)cc(O)cc2O[C@@H]1c1cc(O)c(O)c(O)c1)c1cc(O)c(O)c(O)c1` [EGCg, (−)-epigallocatechin-3-gallate], the “Inhibition of viability of Bacillus megaterium spores compared to the control” value in data set [1] (after 24 hours-incubation at 37° C.) was determined as 90%. In addition, the “Viable cells or colonies of Bacillus megaterium detected” value in data set [1] (both 1 hour and 24 hours treated samples) is listed as “no viable cells or colonies”. The “Average Inhibition of Spore Germination” value is reported as 100.0% in data set [2] (10%); 52.9% in data set [3] (1%); 45.1% in data set [3] (5%); 66.1% in data set [3] (10%); 16.9% in data set [4] (1%); 25.7% in data set [4] (5%). Further, in data set [4] (10%), the “Average Inhibition of Spore Germination” value was found to be 33.0%. The “Average Percent Inhibition of B. megaterium” value in data set [2] (concentration 1%) was determined as 96.39%; in data set [2] (concentration 5%), 99.48%; in data set [2] (concentration 10%), 99.85%. The results for the “Average Percent Inhibition of B. subtilis” value in data set [3] (concentration 1%) and in data set [3] (concentration 5%) were 99.95% and 100%, respectively. Moreover, the “Average Percent Inhibition of B. cereus” value in data set [4] (concentration 1%) is given as 94.18%; in data set [4] (concentration 5%) it was 91.68%; in data set [4] (concentration 10%), 99%.

For `CCCCCCCCCCCCCCCCCC(=O)Oc1c(O)cc([C@H]2Oc3cc(O)cc(O)c3C[C@H]2OC(=O)c2cc(O)c(O)c(O)c2)cc1O` [EGCg-Stearate, (−)-epigallocatechin-3-gallate (EGCG) esterified at the 4′ position with stearic acid], the “Average Inhibition of Spore Germination” value in data set [2] (1%) worked out at 70.5%; in data set [2] (5%), 75.0%; in data set [2] (10%), 79.0%; in data set [3] (1%), 55.0%; in data set [3] (5%) it was 58.1%; in data set [3] (10%), 69.2%. Moreover, the “Average Inhibition of Spore Germination” value worked out at 72.6% in data set [4] (1%), 56.6% in data set [4] (5%) and 90.5% in data set [4] (10%). For the same molecule, the “Average Percent Inhibition of B. megaterium” value in data set [2] (concentration 1%) was found to be 99.84%; in data set [2] (concentration 5%) it was 91.91%; in data set [2] (concentration 10%), 97.14%. For the same molecule, the “Average Percent Inhibition of B. subtilis” value in data set [3] (concentration 1%) was 99.93%; in data set [3] (concentration 5%), 98.77%. Further, the “Average Percent Inhibition of B. cereus” value in data set [4] (concentration 1%) worked out at 88.81%; in data set [4] (concentration 5%), 98.49%; in data set [4] (concentration 10%), 98%.
